The record followed here is patent publication US20240083857A1, “2-Methyl-Quinazolines” (Bayer Pharma Aktiengesellschaft, priority 2017, published 2024).

Test [1] addresses human SOS1 (nucleotide exchange of K-Ras^G12C) (Homo sapiens, UniProt Q07889). In words: Biochemical assay 2: K-Ras^G12C activation assay by hSOS1 at high GTP concentration (HTRF). Particulars: high GTP; for pIC50: read-out: Assay 2 (KRAS-Activation by SOS high GTP) activity expressed as IC50. A general note: In TR-FRET formats the signal depends on donor and acceptor labels being close together.

For test [2], the target named is Epidermal Growth Factor Receptor (EGFR) (Homo sapiens (Human), UniProt P00533). The experiment in a line: EGFR kinase assay (TR-FRET). The format is biochemical. The note with it: values given in μM; read-out: EGFR kinase inhibition IC50. An outline of the steps:
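EGFR purified from A431 cells was preincubated with compound 15 min at 22° C in pH 7.0 Hepes buffer with MgCl2, MnCl2 and vanadate before reaction with a biotinylated peptide. After EDTA stop, phosphopeptide was detected by TR-FRET (anti-phosphotyrosine Tb-cryptate, streptavidin-XL665) as the 665/620 nm emission ratio.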

Each structure is given as a SMILES string. pIC50: −log10 of the molar value.

Sequence of Epidermal Growth Factor Receptor (EGFR) (P00533 25-1210): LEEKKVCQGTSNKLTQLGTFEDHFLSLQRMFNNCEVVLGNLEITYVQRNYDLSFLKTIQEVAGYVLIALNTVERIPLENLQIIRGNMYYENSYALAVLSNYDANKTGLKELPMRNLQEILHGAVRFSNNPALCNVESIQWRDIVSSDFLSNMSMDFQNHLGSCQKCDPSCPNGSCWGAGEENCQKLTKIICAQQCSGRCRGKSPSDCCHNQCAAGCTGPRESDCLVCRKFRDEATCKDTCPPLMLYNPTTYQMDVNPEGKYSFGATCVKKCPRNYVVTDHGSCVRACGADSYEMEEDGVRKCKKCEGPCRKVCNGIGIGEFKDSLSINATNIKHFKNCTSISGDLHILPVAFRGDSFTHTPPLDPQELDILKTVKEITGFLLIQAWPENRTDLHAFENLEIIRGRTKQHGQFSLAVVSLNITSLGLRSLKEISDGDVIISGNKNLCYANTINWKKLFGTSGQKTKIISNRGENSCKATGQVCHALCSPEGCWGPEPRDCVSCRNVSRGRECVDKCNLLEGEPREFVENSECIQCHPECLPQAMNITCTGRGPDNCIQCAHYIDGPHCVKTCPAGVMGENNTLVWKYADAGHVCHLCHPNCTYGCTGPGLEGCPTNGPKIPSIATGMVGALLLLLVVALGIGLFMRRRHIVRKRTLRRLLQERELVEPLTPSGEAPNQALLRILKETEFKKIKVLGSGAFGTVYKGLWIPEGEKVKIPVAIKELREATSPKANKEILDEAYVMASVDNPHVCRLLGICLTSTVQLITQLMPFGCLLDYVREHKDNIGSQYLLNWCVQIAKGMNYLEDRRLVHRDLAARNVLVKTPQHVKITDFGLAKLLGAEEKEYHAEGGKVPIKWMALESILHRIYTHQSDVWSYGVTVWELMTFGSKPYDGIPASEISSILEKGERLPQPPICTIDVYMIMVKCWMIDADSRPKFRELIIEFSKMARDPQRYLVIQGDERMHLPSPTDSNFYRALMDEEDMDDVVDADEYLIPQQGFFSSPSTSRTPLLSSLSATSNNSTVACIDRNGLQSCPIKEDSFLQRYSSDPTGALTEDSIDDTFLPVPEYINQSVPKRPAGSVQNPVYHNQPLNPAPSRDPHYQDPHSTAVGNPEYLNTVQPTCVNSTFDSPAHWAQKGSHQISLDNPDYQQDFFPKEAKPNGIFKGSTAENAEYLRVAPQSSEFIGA

For `COc1cc2nc(C)nc(NC(C)c3ccc(-c4ccccc4CN4CCC(N(C)C)C4)s3)c2cc1OC` (stereo not drawn) [Example 238, N-{1-[5-(2-{[3-(dimethylamino)pyrrolidin-1-yl]methyl}phenyl)thiophen-2-yl]ethyl}-6,7-dimethoxy-2-methylquinazolin-4-amine], in test [1], the pIC50 (commonly the IC50 on a negative log10 scale, so that one unit is a factor of ten) is 6.66. For the same compound, in test [2], the concentration for half-maximal inhibition (IC50) (commonly the midpoint of a concentration-inhibition curve) was above 20 µM.
The corresponding values for `COc1cc2nc(C)nc(NC(C)c3ccc(-c4ccccc4CN4CC[C@H](F)C4)s3)c2cc1OC` (stereo partly drawn) [Example 211, N-{1-[5-(2-{[(3S)-3-fluoropyrrolidin-1-yl]methyl}phenyl)thiophen-2-yl]ethyl}-6,7-dimethoxy-2-methylquinazolin-4-amine] are 6.53 and above 20 µM.
In the same order, the values of `COc1cc2nc(C)nc(NC(C)c3cccc4[nH]nc(C)c34)c2cc1OC` (stereo not drawn) [Example 13, 6,7-dimethoxy-2-methyl-N-[1-(3-methyl-1H-indazol-4-yl)ethyl]quinazolin-4-amine] are 5.58 and above 20 µM.
As to `COc1cc2nc(C)nc(NC(C)c3cccc4cccnc34)c2cc1OC` (stereo not drawn) [Example 217, 6,7-dimethoxy-2-methyl-N-[1-(quinolin-8-yl)ethyl]quinazolin-4-amine], the inhibition (in general, how much of the control response was suppressed) at 20 µM in test [1] (read-out: Assay 2 (KRAS-Activation by SOS high GTP) activity expressed as % inhibition at 20 μM, at 20 μM) came to 50%. In addition, the IC50 in test [2] is above 20 µM.
Turning to `COc1cc2nc(C)nc(NC(C)c3ccc(-c4ccccc4N)s3)c2cc1OC` (stereo not drawn) [Example 243, N-{1-[5-(2-aminophenyl)thiophen-2-yl]ethyl}-6,7-dimethoxy-2-methylquinazolin-4-amine], the pIC50 in test [1] was 6.49. Also, the IC50 in test [2] was above 20 µM.
The corresponding values for `COc1cc2nc(C)nc(NC(C)c3ccc(-c4ccccc4CN4CC5(COC5)C4)s3)c2cc1OC` (stereo not drawn) [Example 182, 6,7-di methoxy-2-methyl-N-[1-{5-[2-(2-oxa-6-azaspiro[3.3]hept-6-ylmethyl)phenyl]thiophen-2-yl}ethyl]quinazolin-4-amine] are 6.91 and above 20 µM.
In the same order, the values of `COc1cc2nc(C)nc(NC(C)c3ccc(-c4ccccc4C(N)=O)s3)c2cc1OC` (stereo not drawn) [Example 240, 2-(5-{1-[(6,7-dimethoxy-2-methylquinazolin-4-yl)amino]ethyl}thiophen-2-yl)benzamide] are 5.50 and above 20 µM.
On to `COc1cc2nc(C)nc(N[C@H](C)c3ccc(F)cc3)c2cc1OC` [Example 12, N-[(1R)-1-(4-fluorophenyl)ethyl]-6,7-dimethoxy-2-methylquinazolin-4-amine], for which the negative-log IC50 (pIC50) in test [1] is 6.24. Also, in test [2], the IC50 was above 20 µM.
As to `COc1cc2nc(C)nc(NC(C)c3ccc(-c4cccc(C(N)=O)c4)s3)c2cc1OC` (stereo not drawn) [Example 241, 3-(5-{1-[(6,7-dimethoxy-2-methylquinazolin-4-yl)amino]ethyl}thiophen-2-yl)benzamide], in test [1], the pIC50 is 5.84. The IC50 in test [2] is above 20 µM.
The corresponding values for `COc1cc2nc(C)nc(NC(C)c3ccc(-c4ccccc4CN4CCC(F)(F)C4)s3)c2cc1OC` (stereo not drawn) [Example 223, N-[1-(5-{2-[(3,3-difluoropyrrolidin-1-yl)methyl]phenyl}thiophen-2-yl)ethyl]-6,7-dimethoxy-2-methylquinazolin-4-amine] are 5.25 and above 20 µM.
In the case of `COc1cc2nc(C)nc(NC(C)c3ccc(-c4ccc(C(N)=O)cc4)s3)c2cc1OC` (stereo not drawn) [Example 242, 4-(5-{1-[(6,7-dimethoxy-2-methylquinazolin-4-yl)amino]ethyl}thiophen-2-yl)benzamide], the pIC50 in test [1] was 5.82. Further, the concentration for half-maximal inhibition (IC50) in test [2] is above 20 µM.
`COc1cc2nc(C)nc(NC(C)c3ccc(-c4ccccc4C#N)s3)c2cc1OC` (stereo not drawn) [Example 245, 2-(5-{1-[(6,7-dimethoxy-2-methylquinazolin-4-yl)amino]ethyl}thiophen-2-yl)benzonitrile]: the pIC50 in test [1] is 6.05. In test [2], the IC50 is above 20 µM.
The corresponding values for `COc1cc2nc(C)nc(NC(C)c3cccc(-c4nn[nH]n4)c3)c2cc1OC` (stereo not drawn) [Example 216, 6,7-dimethoxy-2-methyl-N-{1-[3-(2H-tetrazol-5-yl)phenyl]ethyl}quinazolin-4-amine] are 4.77 and above 20 µM.
In the same order, the values of `COc1cc2nc(C)nc(NC(C)c3cccc4cn(C)nc34)c2cc1OC` (stereo not drawn) [Example 8, 6,7-dimethoxy-2-methyl-N-[1-(2-methyl-2H-indazol-7-yl)ethyl]quinazolin-4-amine] are 4.70 and above 20 µM.
The corresponding values for `COc1cc2nc(C)nc(N[C@H](C)c3cccc(C#N)c3)c2cc1OC` [Example 194, 3-{(1R)-1-[(6,7-dimethoxy-2-methylquinazolin-4-yl)amino]ethyl}benzonitrile] are 6.23 and above 20 µM.
With `CNCc1ccccc1-c1ccc(C(C)Nc2nc(C)nc3cc(OC)c(OC)cc23)s1` (stereo not drawn) [Example 250, 6,7-dimethoxy-2-methyl-N-[1-(5-{2-[(methylamino)methyl]phenyl}thiophen-2-yl)ethyl]quinazolin-4-amine], the negative-log IC50 (pIC50) in test [1] was 7.24. The IC50 in test [2] was above 20 µM.
In the case of `COc1cc2nc(C)nc(NC(C)c3ccc(-c4cccc5cn[nH]c45)s3)c2cc1OC` (stereo not drawn) [Example 246, N-{1-[5-(1H-indazol-7-yl)thiophen-2-yl]ethyl}-6,7-dimethoxy-2-methylquinazolin-4-amine], the pIC50 in test [1] was 5.38. The 50% inhibitory concentration (IC50) in test [2] was above 20 µM.
For the compound `COc1cc2nc(C)nc(NC(C)c3ccc(-c4ccc(F)c5ccccc45)s3)c2cc1OC` (stereo not drawn) [Example 233, N-{1-[5-(4-fluoronaphthalen-1-yl)thiophen-2-yl]ethyl}-6,7-dimethoxy-2-methylquinazolin-4-amine], the pIC50 in test [1] was 5.70. In addition, the 50% inhibitory concentration (IC50) in test [2] was above 20 µM.
